# According to patent US6770673B1, “Therapeutic uses of arglabin in combination with other chemotherapy agents” (priority 1997, dated 2004):
# Marks after values point to notes of the source that are not given here.
# How the values were obtained:
# stage IV cancer = test: Second clinical trial, 72 patients; format: in vivo, human
# From the text: A three to six month lag in dimethylaminoarglabin hydrochloride production halted the first clinical trial. […] Among the patients, 25% had carcinoma of the stomach, 16.7% had liver cancer, 18.1% had lung cancer and the remaining 40.2% had esophageal, breast, ovarian, pancreatic, brain or lymphosarcoma. Patients with poorer states had metastases to the liver (25%), retroperitoneal lymph nodes (25), ascites (22.2%) and exudative pleuritis (11.1%).
# Sarcoma-45 = test: Inhibition of tumor growth in implanted tumors; format: in vivo, rats
# [1] = system: Sarcoma-45 resistant to 5-fluorouracil; test: Inhibition of growth of resistant tumour strains; format: in vivo, rats; conditions: dose 50 mg/kg
# immune system [2] = test: Immune system modulation in intact mice; format: in vivo
# Description: In intact mice, injection of 10 mg/kg increased the total number of leukocytes through an increase in the absolute number of lymphocytes. […] The nitroblue tetrazolium assay was used to assess the function of the neutrophils. […] With a higher dosage, 20 mg/kg, a decrease in nitroblue tetrazolium positive neutrophils was seen, indicating a decrease in function.
# The level of the T-suppressor subpopulation was not altered. At a higher dosage (20 mg/kg), overall leukocyte number was not altered, even though B-lymphocyte number decreased and T-lymphocyte decreased to a lesser extent. Natural killer cell number was increased.
# The increase in T-lymphocytes was accompanied by an increase in the level of the T-helper subpopulation of T-lymphocytes.
# [3] = Toxicity and maximum tolerable doses of arglabin and derivatives; format: in vivo, rats, guinea pigs, mice, rabbits; conditions: 2% aqueous solution, blood serum and hepatic tissue
# From the text: Overall, the compounds in this family have low toxicity and are tolerated at dosages exceeding the therapeutic dosage.
# Blood pressure was maintained.
# P-815 cells [4] = test: Proliferation of transformed cells, 3H-thymidine incorporation; format: cell-based, mouse; conditions: 3H-thymidine 18 hours, FIG. 6
# Description: (§1) Mouse mastocytoma (P-815), myeloma (Z-P3x63Ag8.653 and Pai) and human erthyroleukemia (K-562) cell lines were used. Primary cultures of normal mouse hepatocytes were isolated from mouse liver using collagenase. Mouse splenocytes were isolated using a glass homogenizer. Marrow cells were obtained by washing the bone marrow. See, for example, Shears, S. B. and Kirk, C. J. (1984), Biochem. J. 219:375-382.
# (§2) Cells were cultured in RPMI-1640 medium supplemented with 10% fetal calf serum, 100 mM L-glutamine and 50 μg/ml gentamycin at 37° C. under 5% CO2. Cells were seeded into 24-well plates at a density of 50,000 cells/well and grown until near confluency, approximately 2 days, then transferred to 96-well plates at the same density. […] Viability of the cells was determined by trypan blue exclusion. […] Approximately 25% of K-562 and X-653 cells survived at a concentration of 12 μg/ml, and the same proportion of P-815 cells survived at a concentration of about 25 μg/ml.
# (§3) The proliferation of the transformed cells was assessed by incubating ^3H-labeled thymidine in the media for 18 hours. At the end of the specified time period, the proliferation was measured by counting the amount of ^3H-thymidine incorporated. Thymidine incorporation provides a quantitative measure of the rate of DNA synthesis, which is typically directly proportional to the rate of cell division.
# X-653 cells [5] = test: as above; format: cell-based, mouse; conditions: 3H-thymidine 18 hours, FIG. 6
# Description: as §1, §2, §3
# [6] = system: Pliss Lymphosarcoma resistant to prospidine; test: Inhibition of growth of resistant tumour strains; duration of life and metastasis; format: in vivo, rats
# immune system [7] = test: Immunity of rats with initial and prospidin resistant tumors with metastases; format: in vivo; conditions: sarcolysin, cisplatin
# immune system [8] = test: Immunological indices in intact August rats; format: in vivo; conditions: about 50 mg/kg IP daily for 10 days
# From the text: Additional immunological data were obtained from an “August” line of rats, weighing 140-160 g, with and without Pliss lymphosarcoma. […] Results are summarized in Table V. Overall, lyophilized-dimethylaminoarglabin hydrochloride stimulated delayed type hypersensitivity, but reduced all other studied indices in intact rats. In rats with Pliss Lymphosarcoma, the immune system was stimulated, as all studied indices increased.
# Solubility in water = format: physicochemical
# K-562 cells = test: Viability of transformed cells, trypan blue exclusion; format: cell-based, human; conditions: 12 μg/ml, 18 hours
# Description: as §1, §2
# P-815 cells [9] = test: as above; format: cell-based, mouse; conditions: about 25 μg/ml, 18 hours
# Description: as §1, §2
# X-653 cells [10] = test: as above; format: cell-based, mouse; conditions: 12 μg/ml, 18 hours
# Description: as §1, §2
# [11] = Ability to keep normal activities, minimum signs of the disease
# [12] = Maintains themself, but is not able to work
# [13] = Needs occasional assistance, but is able to maintain themself
# [14] = Normal activities are hardly performable, some signs of the disease
compound,measurement,setting,value
CC1=CCC23OC2(C)CCC2C(CN(C)C)C(=O)OC2C13.Cl (centres unmarked) [Dimethylaminoarglabin hydrochloride],patients with no response,stage IV cancer; 8 of 72,11.1%
same,patients responded to therapy,stage IV cancer; 64 of 72,88.9%
same,% of Patients - Absence of dynamics or stabilization,stage IV cancer; 72 patients,31.9%
same,% of Patients - Partial regression over or equal to 50% decrease of tumor or metastasis,stage IV cancer; 72 patients,61.1%
same,% of Patients - Progression,stage IV cancer; 72 patients,7.0%
same,Number of Patients % - Karnofsky scale 90,stage IV cancer; [11],41.7%
same,"Number of Patients abs, N - Karnofsky scale 90",stage IV cancer; [11],30
same,"Thrombocytes, mean index of peripheral blood",stage IV cancer; After Treatment (before treatment 2.0),2.8 thsd
same,"Erythrocytes, mean index of peripheral blood",stage IV cancer; After Treatment (before treatment 2.3-3.0),3.0 10^12/l-10^9/l
same,"Leukocytes, mean index of peripheral blood",stage IV cancer; After Treatment (before treatment 4.5-5.5),4.0 10^12/l-10^9/l
same,"Lymphocytes, mean index of peripheral blood",stage IV cancer; After Treatment (before treatment 8-15),15-20
same,"Thrombocytes, mean index of peripheral blood",stage IV cancer; During Treatment (before treatment 2.0),2.3 thsd
same,"Erythrocytes, mean index of peripheral blood",stage IV cancer; During Treatment (before treatment 2.3-3.0),2.4-3.0 10^12/l-10^9/l
same,"Leukocytes, mean index of peripheral blood",stage IV cancer; During Treatment (before treatment 4.5-5.5),3.5-4.0 10^12/l-10^9/l
same,"Lymphocytes, mean index of peripheral blood",stage IV cancer; During Treatment (before treatment 8-15),28-35
same,Number of Patients % - Karnofsky scale 30,stage IV cancer; Extreme invalidism,4.2%
same,"Number of Patients abs, N - Karnofsky scale 30",stage IV cancer; Extreme invalidism,3
same,Number of Patients % - Karnofsky scale 70,stage IV cancer; [12],33.3%
same,"Number of Patients abs, N - Karnofsky scale 70",stage IV cancer; [12],24
same,Number of Patients % - Karnofsky scale 60,stage IV cancer; [13],6.9%
same,"Number of Patients abs, N - Karnofsky scale 60",stage IV cancer; [13],5
same,Number of Patients % - Karnofsky scale 80,stage IV cancer; [14],13.9%
same,"Number of Patients abs, N - Karnofsky scale 80",stage IV cancer; [14],10
same,side effects,"stage IV cancer; patients, hydrochloride",No side effects
same,"Inhibition of Tumour Growth, % - Sarcoma-45",Sarcoma-45; dose 30 mg/kg,86.5*** %
same,"Inhibition of Tumour Growth, % - Sarcoma-45",Sarcoma-45; dose 50 mg/kg,83.1** %
same,"Inhibition of Tumour Strains Growth, % - Resistant Forms - Sarcoma-45 to 5-fluorouracil",[1],62.3%
same,total number of leukocytes,immune system [2]; 10 mg/kg,increased
same,B-lymphocytes,immune system [2]; 10 mg/kg daily IP for 10 days,remained stable
same,overall leukocyte count,immune system [2]; 10 mg/kg daily IP for 10 days,increased
same,leukocyte number,immune system [2]; 20 mg/kg,did not result in an overall increase
same,nitroblue tetrazolium positive neutrophils,immune system [2]; 20 mg/kg,decrease
same,natural killer cell number,immune system [2]; 20 mg/kg daily IP for 10 days,increased
same,findings after prolonged daily intraperitoneal administration,[3],Reversible changes in glycolysis and tissue respiration
same,concentration at which proliferation was effectively blocked,P-815 cells [4],12 µg/mL
same,concentration at which proliferation was effectively blocked,X-653 cells [5],6 µg/mL
same,"Inhibition of Tumour Strains Growth, % - Resistant Forms - Pliss Lymphosarcoma to prospidine",[6]; dose 30 mg/kg,62.3%
same,"Inhibition of Tumour Strains Growth, % - Resistant Forms - Pliss Lymphosarcoma to prospidine",[6]; dose 50 mg/kg,87.4*** %
same,effect on immunodepression caused by cytostatics,immune system [7],softened the immunodepressive effect of cytostatics
same,"Hemagglutination (RHG), Intact Rats After Treatment",immune system [8]; Decreased,43-53%
same,"Nitroblue tetrazolium (NBT), Intact Rats After Treatment",immune system [8]; Decreased,67-91%
same,"Spontaneous-erythrocyte rosette forming (E-ROK), Intact Rats After Treatment",immune system [8]; Decreased,64-84%
same,"Delayed type hypersensitivity, Intact Rats After Treatment",immune system [8]; Increased,153-207%
same,solubility in water,Solubility in water,soluble in water
same,cells survived,K-562 cells,Approximately 25%
same,cells survived,P-815 cells [9],Approximately 25%
same,cells survived,X-653 cells [10],Approximately 25%
